Molecules are shown by their SMILES. Numbers after ± are expanded uncertainties.

The conditions of this data set: for Normal melting temperature: DTA.

Consider `CCn1cc[n+](C)c1.O=S(=O)([N-]S(=O)(=O)C(F)(F)C(F)(F)F)C(F)(F)C(F)(F)F`, for which the Normal melting temperature (Crystal) stood at 16.00 ± 2 °C. Under “Glass, DSC”, the Glass transition temperature was -52.00 ± 2 °C. On to `CCn1cc[n+](C)c1.O=S(=O)([O-])C(F)(F)F` [1-ethyl-3-methylimidazolium trifluoromethanesulfonate], for which the Normal melting temperature (Crystal) is -14.00 ± 2 °C.

Consider `CC[n+]1ccccc1.O=S(=O)([N-]S(=O)(=O)C(F)(F)F)C(F)(F)F` [1-ethylpyridinium bis[(trifluoromethyl)sulfonyl]imide], for which, under “Crystal 1”, the Normal melting temperature amounted to 32.00 ± 2 °C. For the same compound, the Triple point temperature (Crystal 2, DSC) is listed as 294.15 ± 2 K. For the compound `CC[n+]1ccccc1.CS(=O)(=O)[O-]` [1-ethylpyridinium methanesulfonate], the Normal melting temperature (Crystal) came to 62.00 ± 2 °C. For `CC[n+]1ccccc1.O=S(=O)([O-])C(F)(F)F` [1-ethylpyridinium triflate], the Normal melting temperature (Crystal 1) stood at 32.00 ± 2 °C. Further, the Triple point temperature (Crystal 2, DSC) was 266.15 ± 2 K. In the case of `C[N+](C)(C)CCO.O=S(=O)([N-]S(=O)(=O)C(F)(F)F)C(F)(F)F` [choline bis(trifluoromethylsulfonyl)imide], for the setting “Crystal 1”, the Normal melting temperature was determined as 33.00 ± 2 °C. Also, the Triple point temperature runs as follows: (Crystal 2, DSC) 275.15 ± 2 K; (Metastable crystal, DSC) 300.15 ± 2 K.

The values are drawn from the NIST ThermoML archive (doi:10.1016/j.jct.2015.07.034).
